Laboratory results published in article PMC3949575 (The Journal of Experimental Medicine, 2014).

Target: deoxycytidine kinase (dCK) (Homo sapiens, UniProt P27707)
Assay: HTS hit
Assay type: cell-based

IC50: 1400 nM
Compound: COc1ccc(Br)cc1-c1nc(CSc2nc(N)cc(N)n2)cs1 [DI-0120]
